{
  "source": "paper PMC9532536",
  "about": "(Acta Pharmaceutica Sinica. B, 2022)",
  "molecular_target": "GRP78 (78 kDa glucose-regulated protein) (Homo sapiens, UniProt P11021, K326A)",
  "sequence (P11021 19-654 K326A)": "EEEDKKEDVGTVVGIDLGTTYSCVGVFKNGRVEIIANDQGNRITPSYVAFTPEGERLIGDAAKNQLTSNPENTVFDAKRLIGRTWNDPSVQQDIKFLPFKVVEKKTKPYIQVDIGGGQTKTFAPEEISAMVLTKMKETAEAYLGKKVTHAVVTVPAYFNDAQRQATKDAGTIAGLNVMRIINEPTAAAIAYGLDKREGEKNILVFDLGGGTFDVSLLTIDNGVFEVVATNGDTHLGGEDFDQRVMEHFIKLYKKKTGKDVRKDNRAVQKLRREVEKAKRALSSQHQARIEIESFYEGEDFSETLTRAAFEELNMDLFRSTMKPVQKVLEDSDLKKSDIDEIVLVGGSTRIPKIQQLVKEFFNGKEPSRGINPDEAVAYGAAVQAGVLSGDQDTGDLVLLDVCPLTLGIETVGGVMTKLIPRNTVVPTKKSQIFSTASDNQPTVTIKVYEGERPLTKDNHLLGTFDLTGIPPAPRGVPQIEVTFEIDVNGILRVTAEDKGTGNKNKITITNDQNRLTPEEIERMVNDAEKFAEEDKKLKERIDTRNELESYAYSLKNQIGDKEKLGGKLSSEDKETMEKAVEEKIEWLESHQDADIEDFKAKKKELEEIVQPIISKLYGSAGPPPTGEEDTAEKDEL",
  "experiment": "microscale thermophoresis",
  "assay_type": "binding",
  "data": [
    {"compound": "CC(=O)OC(C)(C)/C=C/C(=O)[C@](C)(O)[C@H]1[C@H](O)C[C@@]2(C)[C@@H]3CC=C4[C@@H](C[C@H](O)C(=O)C4(C)C)[C@]3(C)C(=O)C[C@]12C", "note": "[CuB, cucurbitacin B]", "values": [
      {"measurement": "Kd", "value": 25.4, "unit": "µM"}
    ]}
  ]
}
